Source: patent US20050277107A1, “Systems and methods for cell preservation” (priority 2002, published 2005)

Legend:
[1] = Glass transition temperature of extracellular trehalose solution (modulated temperature DSC); type: physicochemical; details: after 18 h of dried storage at 4° C.
Description: Thus, the extracellular trehalose solution had vitrified by 18 h. After vitrification (glass formation) of the solution containing the cells had occurred, the cells were able to retain their plasma membrane integrities, even after days to weeks in storage at relatively cooler storage temperatures.

[2] = system: NIH 3T3 murine fibroblasts; assay: Post-rehydration cell growth (percentage of viable cells versus undried controls after overnight culture); type: cell-based
Description: (§1) NIH 3T3 murine fibroblasts were cultured in Dulbecco's Modified Eagle's medium (DMEM) supplemented with 10% v/v bovine calf serum and 1% v/v penicillin-streptomycin at 37° C. with 10% CO2 in air. At 70% confluence, the cells were trypsinized and resuspended in culture medium. 20 microliter droplets of cells were plated onto sterile 12 mm circular glass cover slips and cultured for 30 min at 37° C. to allow for loose attachment of the fibroblasts to the cover slip. In some cases, poly-L-lysine-coated cover slips were used for attaching the cells to the cover slips. The cover slips were precoated with poly-L-lysine to assure uniform surface characteristics as follows. The cover slips were first prepared by soaking them in aqua regia overnight. The next day, the cover slips were rinsed in 50 mM NaHCO3, then in de-ionized H2O. The cover slips were then baked for at least 3 h at 150° C. The cover slips were removed from the oven and floated in a 1 mg/ml solution of poly-L-lysine for 5 min on each side, then rinsed in de-ionized H2O and air-dried.
Trehalose was inserted into the fibroblasts as follows. The fibroblasts were washed with 30 microliters of a HEPES-buffered saline solution supplemented with EDTA, followed by three washes with 30 microliters of RPMI-1640. The cells were then porated by exposure to an RPMI-1640 solution containing 25 micrograms/ml of a pore-forming protein, H5 alpha-hemolysin, for 10 min. Intracellular trehalose was inserted into the porated cells by exposure to either a hypertonic (RPMI-1640+0.2 M trehalose; 528 mOsm/kg) or an isotonic (RPMI-1640 diluted in H2O+0.2 M trehalose; 310 mOsm/kg) trehalose solution for 45 min. The pores created by H5 alpha-hemolysin in the fibroblasts were closed by adding 25 micromolar ZnSO4 to the solution. The fibroblasts were then washed in an (H5-free) hypertonic or an isotonic trehalose solution. The osmolality of the solution was measured using a freezing-point depression osmometer. […]
(§2) Techniques used in these experiments for drying cells included evaporative drying (using natural convection) or forced laminar convective flow. […] The moisture content of each droplet was determined gravimetrically from the difference in the droplet weight before and after drying, and was expressed as a percentage of anhydrous dry weight. Anhydrous dry weights were determined by baking a representative droplet overnight at 110° C. and measuring the droplet weights. […] The cells within the droplet were then cultured overnight (˜18 h) and assessed for viability.
Following overnight culture, the percentage of viable cells in droplets that were dried and then recovered, compared to undried controls, was used as a measure of cell growth. Viable fibroblasts could be readily identified through their flattening, migratory, and mitotic behavior. […]

[3] = system: NIH 3T3 murine fibroblasts; assay: Post-rehydration plasma membrane integrity (SYTO 13/ethidium bromide dual fluorescent assay) of dried cells; type: cell-based; details: for moisture content above which membrane integrity remained relatively stable: hypertonic (528 mOsm/kg) 0.2 M trehalose
Description: as §1
Trehalose was inserted into the fibroblasts as follows. The fibroblasts were washed with 30 microliters of a HEPES-buffered saline solution supplemented with EDTA, followed by three washes with 30 microliters of RPMI-1640. The cells were then porated by exposure to an RPMI-1640 solution containing 25 micrograms/ml of a pore-forming protein, H5 alpha-hemolysin, for 10 min. Intracellular trehalose was inserted into the porated cells by exposure to either a hypertonic (RPMI-1640+0.2 M trehalose; 528 mOsm/kg) or an isotonic (RPMI-1640 diluted in H2O+0.2 M trehalose; 310 mOsm/kg) trehalose solution for 45 min. The pores created by H5 alpha-hemolysin in the fibroblasts were closed by adding 25 micromolar ZnSO4 to the solution. The fibroblasts were then washed in an (H5-free) hypertonic or an isotonic trehalose solution. The osmolality of the solution was measured using a freezing-point depression osmometer. All experimental manipulations were performed at room temperature, unless otherwise indicated.
as §2, with “flow. The natural convection protocol is generally as follows. The approximate pre-desiccation dimensions of the 20 microliter droplet of media containing the fibroblasts on the glass cover slip was 6 mm diameter×1 mm height. The cover slips were placed in airtight acrylic boxes containing CaSO4/CoCl2 desiccant. The cover slips were stored there for different lengths of time, typically ranging from a few hours to several weeks.” for “flow.”
The integrity of the plasma membrane of the cells after rehydration was determined using a dual fluorescent assay as follows. […] The cells were imaged on a fluorescent microscope and analyzed. The membrane integrity (MI) for the cells was calculated as the percentage of SYTO® 13-positive cells in the sample. […]

[4] = system: 3T3 fibroblasts; assay: Long-term stability of membrane integrity during dried storage (exponential decay curve fit); type: cell-based, murine; details: 0.4 M intracellular trehalose
Description: The integrity of the plasma membrane of the cells after rehydration was determined using a dual fluorescent assay as follows. SYTO® 13 (Molecular Probes, Inc. Eugene, Oreg.), a permeant live cell nucleic acid dye (25 micromolar), and ethidium bromide (EB; 25 micromolar) were used to differentially stain the cells. The cells were imaged on a fluorescent microscope and analyzed. The membrane integrity (MI) for the cells was calculated as the percentage of SYTO® 13-positive cells in the sample.
The membrane integrity of 3T3 fibroblasts loaded with 0.4 M trehalose intracellularly was measured for periods of time extending out to several weeks (FIG. 5). The fibroblasts were prepared using methods similar to those described in Example 1. The data in FIG. 5 represents experiments where cells were removed from storage, rehydrated, analyzed, and then discarded. The cells were stored at temperatures of −80° C., −20° C., 4° C., 25° C., and 37° C., over CaSO4 desiccant (about 5% relative humidity). The 0.4 M trehalose condition was chosen in this example since previous experiments had shown that cells containing 0.4 M trehalose had high MI values after overnight storage.
Thus, the rate at which the membrane integrity decays appears to be a function of the storage temperature.

[5] = system: human fibroblast cells (HFF1 cells); assay: Cell viability after vacuum desiccation and rehydration on cell adhesion surfaces; type: cell-based; details: dried on standard tissue culture surfaces to about 20% moisture, post-rehydration on coated surface (Tissue Dried)
Description: In this set of experiments, human fibroblast cells (HFF1 cells) were desiccated under vacuum at room temperature on various surfaces, and in some cases, in the presence of 0.2 M extracellular trehalose. The fibroblasts were dried to about 20% moisture content. The fibroblasts were then recovered by rehydrating them, placing them into culture, and assessing their viability about 24 hours later, using techniques similar to those described in Example 1.

Molecule: OC[C@H]1O[C@H](O[C@H]2O[C@H](CO)[C@@H](O)[C@H](O)[C@H]2O)[C@H](O)[C@@H](O)[C@@H]1O [trehalose]
- glass transition temperature of the extracellular trehalose [1]: 5 to 10 °C
- percentage of cell growth, isotonic intracellular and extracellular trehalose versus isotonic extracellular trehalose only ([2]; dried to about 10% moisture content, p=0.004): significant improvement
- cells viable (cell growth) following drying ([2]; hypertonic trehalose solutions, dried to about 10% moisture content): Less than 20%
- percentage of cell growth ([2]; isotonic 0.2 M extracellular trehalose only, dried to 10% moisture content): less than 30%
- cells capable of growth after recovery and overnight culture ([2]; isotonic 0.2 M intracellular and extracellular trehalose, moisture contents greater than about 10%): Approximately 80%
- moisture content above which membrane integrity remained relatively stable ([3]; extracellular trehalose only): greater than 15%
- moisture content above which membrane integrity remained relatively stable ([3]; intracellular and extracellular trehalose): greater than 10%
- membrane integrity (MI) after drying, internal plus external trehalose versus no internal trehalose ([3]; hypertonic solution): higher MI values
- moisture content below which gross membrane damage was observed ([3]; isotonic (310 mOsm/kg) solutions of 0.2 M trehalose): 5-8%
- intact cells (membrane integrity) ([3]; isotonic trehalose solutions, moisture contents as low as 5-8%): about 80%
- decay time constant of membrane integrity ([4]; storage at 4° C. over CaSO4 desiccant): 54 days
- decay time constant of membrane integrity ([4]; storage at 25° C. over CaSO4 desiccant): 7.5 days
- decay time constant of membrane integrity ([4]; storage at 37° C. over CaSO4 desiccant): 2.0 days
- decay time constant of membrane integrity ([4]; storage at -20° C. over CaSO4 desiccant): 138 days
- decay time constant of membrane integrity ([4]; storage at -80° C. over CaSO4 desiccant): 147 days

Molecule: collagen
- cell viability about 24 hours after rehydration [5]: Increases in cell viability

Molecule: fibronectin
- cell viability about 24 hours after rehydration [5]: Increases in cell viability

Molecule: laminin
- cell viability about 24 hours after rehydration [5]: Increases in cell viability
